Series [1] deals with T1, soybean lipoxygenase (Glycine max, UniProt P08170).
T1 construct: purchased Sigma Aldrich- Merck KGaA, Darmstadt, Germany
T1 sequence (P08170 1-839): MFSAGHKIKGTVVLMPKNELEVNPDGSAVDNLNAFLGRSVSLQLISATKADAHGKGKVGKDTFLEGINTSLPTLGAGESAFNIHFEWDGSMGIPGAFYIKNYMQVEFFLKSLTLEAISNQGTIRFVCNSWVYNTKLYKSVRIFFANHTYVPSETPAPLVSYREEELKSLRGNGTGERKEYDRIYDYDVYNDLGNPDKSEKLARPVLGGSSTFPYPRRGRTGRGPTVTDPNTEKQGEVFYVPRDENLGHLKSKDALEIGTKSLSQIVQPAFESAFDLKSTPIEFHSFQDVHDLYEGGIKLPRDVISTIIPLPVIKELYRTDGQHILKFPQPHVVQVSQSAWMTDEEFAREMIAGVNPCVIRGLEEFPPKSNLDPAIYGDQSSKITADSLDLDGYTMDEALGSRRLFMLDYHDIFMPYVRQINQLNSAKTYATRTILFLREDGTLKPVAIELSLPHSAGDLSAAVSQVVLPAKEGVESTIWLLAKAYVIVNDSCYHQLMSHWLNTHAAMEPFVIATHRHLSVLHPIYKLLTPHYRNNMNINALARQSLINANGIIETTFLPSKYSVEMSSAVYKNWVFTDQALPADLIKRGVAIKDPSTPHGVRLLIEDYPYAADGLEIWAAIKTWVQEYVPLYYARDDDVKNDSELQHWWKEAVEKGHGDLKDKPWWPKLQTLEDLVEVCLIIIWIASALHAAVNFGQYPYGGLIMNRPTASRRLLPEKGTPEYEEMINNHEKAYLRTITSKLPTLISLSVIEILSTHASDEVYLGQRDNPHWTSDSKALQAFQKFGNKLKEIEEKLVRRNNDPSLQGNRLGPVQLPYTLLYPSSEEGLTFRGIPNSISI
In words: Inhibition of soybean lipoxygenase. In kind it is biochemical. The conditions noted are these: for IC50: cells of the mixed column with μM, read-out: LOX IC50; for inhibition at 100 µM: read-out: LOX % Inhibition 100 μM. The text has this: Lipoxygenase (LOX) is the key enzyme in the biosynthesis of inflammatory mediators; thus, it is considered a target for inflammatory diseases. Soybean LOX is a plant enzyme that has been used widely as a prototype for studying the functional and structural properties of the homologous family of lipoxygenases, presenting satisfactory homology with the human 5-LOX [42]. Linoleic acid is the most common substrate in plant LOX. […] Lipophilicity is considered one of the most important parameters with regard to LOX inhibitors according to the literature.
In vitro study was performed as reported previously by our group. In this experiment, 10 μL of the tested compound (from the stock solution) were incubated with 100 μL sodium linoleate (diluted in Tris buffer), 200 μL LOX solution (1:9 × 10^−4 w/v in saline) and 690 μL Tris buffer (pH 9.0) at room temperature. The absorbance was measured at 234 nm, where the change of absorbance was recorded due to the formation of 13-hydroperoxy-linoleic acid. […] In order to determine the IC50 values, different concentrations were used.

The mark [2] stands for this setting: 100 μM, cells of the mixed column without μM.

One may read the IC50 as the concentration that inhibits the measured activity by half. The melting point is the temperature of the solid-liquid transition. The term inhibition denotes how much of the control response was suppressed.

Turning to `O=c1[nH]c(=S)[nH]c2nc(-c3ccccc3)cc(-c3ccc(Cl)cc3)c12` [Compound 2e, 5-(4-chlorophenyl)-7-phenyl-2-thioxo-2,3-dihydropyrido [2,3-d]pyrimidin-4(1H)-one], the melting point was > 300 °C. Moreover, the IC50 in series [1] amounted to 76 µM.

Turning to `O=c1[nH]c(=S)[nH]c2nc(-c3ccc(Cl)cc3)cc(-c3cccs3)c12` [Compound 2d, 7-(4-chlorophenyl)-5-(thiophen-2-yl)-2-thioxo-2,3-dihydropyrido [2,3-d]pyrimidin-4(1H)-one], the melting point is > 300 °C. Further, the IC50 in series [1] came out at 70 µM.

The compound `O=c1[nH]c(=S)[nH]c2nc(-c3ccccc3)cc(-c3cccs3)c12` [Compound 2c, 7-phenyl-5-(thiophen-2-yl)-2-thioxo-2,3-dihydropyrido [2,3-d]pyrimidin-4(1H)-one] displayed a melting point of 260 to 262 °C. For the same compound, in series [1], the IC50 came to 68.5 µM.

As for `O=c1[nH]c(=S)[nH]c2nc(-c3ccc(Cl)cc3)cc(-c3ccc(Cl)cc3)c12` [Compound 2f, 5,7-bis(4-chlorophenyl)-2-thioxo-2,3-dihydropyrido [2,3-d]pyrimidin-4(1H)-one], the melting point was > 300 °C. Also, the IC50 in series [1] came to 47.5 µM.

In the case of `O=c1[nH]c(=S)[nH]c2nc(-c3ccccc3)cc(-c3ccc(Cl)cc3Cl)c12` [Compound 2g, 5-(2,4-dichlorophenyl)-7-phenyl-2-thioxo-2,3-dihydropyrido [2,3-d]pyrimidin-4(1H)-one], the melting point was > 300 °C. Moreover, the IC50 in series [1] came out at 54 µM.

Consider `O=C(/C=C/c1ccc(Cl)cc1Cl)c1ccccc1` [Compound 1g, (E)-3-(2,4-dichlorophenyl)-1-phenylprop-2-en-1-one], for which the melting point was 68 to 70 °C. Also, the IC50 in series [1] turned out to be 17 µM.

Consider `O=C(/C=C/c1ccccc1)c1ccc(Cl)cc1` [Compound 1b, (E)-1-(4-chlorophenyl)-3-phenylprop-2-en-1-one], for which the inhibition at 100 µM in series [1] (setting [2]) turned out to be 39%.

The compound `O=c1[nH]c(=S)[nH]c2nc(-c3ccc(Cl)cc3)cc(-c3ccc(Cl)cc3Cl)c12` [Compound 2h, 7-(4-chlorophenyl)-5-(2,4-dichlorophenyl)-2-thioxo-2,3-dihydropyrido [2,3-d]pyrimidin-4(1H)-one] yielded a melting point of 274 to 276 °C. In addition, the inhibition at 100 µM in series [1] (setting [2]) turned out to be 27%.

Consider `O=C(/C=C/c1ccccc1)c1ccccc1` [Compound 1a, (E)-1,3-diphenylprop-2-en-1-one], for which the inhibition at 100 µM in series [1] (setting [2]) came to 26%.

On to `O=c1[nH]c(=S)[nH]c2nc(-c3ccccc3)cc(-c3ccccc3)c12` [Compound 2a, 5,7-diphenyl-2-thioxo-2,3-dihydropyrido [2,3-d]pyrimidin-4(1H)-one], for which the melting point is > 300 °C. For the same compound, in series [1], the IC50 was determined as 42 µM.

For `O=C(/C=C/c1ccc(Cl)cc1Cl)c1ccc(Cl)cc1` [Compound 1h, (E)-1-(4-chlorophenyl)-3-(2,4-dichlorophenyl)prop-2-en-1-one], the “LOX % Inhibition 100 μM” value in series [1] (setting [2]) is “no”.

As to `O=C(/C=C/c1ccc(Cl)cc1)c1ccc(Cl)cc1` [Compound 1f, (E)-1,3-bis(4-chlorophenyl)prop-2-en-1-one], the melting point is 160 to 162 °C. For the same compound, the inhibition at 100 µM in series [1] (setting [2]) was determined as 4%.

Take `O=c1[nH]c(=S)[nH]c2nc(-c3ccc(Cl)cc3)cc(-c3ccccc3)c12` [Compound 2b, 7-(4-chlorophenyl)-5-phenyl-2-thioxo-2,3-dihydropyrido [2,3-d]pyrimidin-4(1H)-one]: the melting point was > 300 °C. In addition, in series [1] (setting [2]), the inhibition at 100 µM stood at 6%.

On to `O=C(/C=C/c1cccs1)c1ccc(Cl)cc1` [Compound 1d, (E)-1-(4-chlorophenyl)-3-(thiophen-2-yl)prop-2-en-1-one], for which, in series [1], the IC50 was 72.5 µM.

Turning to `O=C(/C=C/c1ccc(Cl)cc1)c1ccccc1` [Compound 1e, (E)-3-(4-chlorophenyl)-1-phenylprop-2-en-1-one], in series [1], the IC50 was found to be 55.5 µM.
